From BindingDB's records for doi:10.1021/jm00080a021 (Notre-Dame Hospital Research, 1992) come the findings set out here.

A value given as a limit tells only on which side of the number the result lay.

The target of the assay is Ribonucleoside-diphosphate reductase large subunit R1 (Herpes simplex virus type 1). The experiment in a line: Inhibitory concentration against HSV-1 ribonucleotide reductase R1 protein binding.
`CC[C@H](C)[C@H](NC(=O)[C@@H](NC(=O)[C@@H](NC(=O)CNC(=O)[C@H](C)NC(=O)[C@H](Cc1ccc(O)cc1)NC(C)=O)[C@@H](C)O)C(C)C)C(=O)N[C@@H](CC(N)=O)C(=O)N[C@@H](CC(N)=O)C(=O)N[C@@H](CC(C)C)C(=O)O`: the IC50 is 640 µM.
“Ac-YAGTVINCL-OH [2-{2-[2-(2-{2-[2-(2-{2-[2-Acetylamino-3-(4-hydroxy-phenyl)-propionylamino]-propionylamino}-acetylamino)-3-hydroxy-butyrylamino]-3-methyl-butyrylamino}-3-methyl-pentanoylamino)-3-carbamoyl-propionylamino]-3-mercapto-propionylamino}-4-methyl-pentanoic acid]” came in with an IC50 above 1000 µM.
Under `CC[C@H](C)[C@H](NC(=O)[C@@H](NC(=O)[C@@H](NC(=O)CNC(=O)[C@H](C)NC(=O)[C@H](Cc1ccc(O)cc1)NC(C)=O)[C@@H](C)O)C(C)C)C(=O)N[C@@H](CC(N)=O)C(=O)N[C@@H](CCC(=O)O)C(=O)N[C@@H](CC(C)C)C(=O)O` [2-{2-[2-(2-{2-[2-(2-{2-[2-Acetylamino-3-(4-hydroxy-phenyl)-propionylamino]-propionylamino}-acetylamino)-3-hydroxy-butyrylamino]-3-methyl-butyrylamino}-3-methyl-pentanoylamino)-3-carbamoyl-propionylamino]-4-carboxy-butyrylamino}-4-methyl-pentanoicacid] stands 650 µM.
In turn, `CC[C@H](C)[C@H](NC(=O)[C@@H](NC(=O)[C@@H](NC(=O)CNC(=O)[C@H](C)NC(=O)[C@H](Cc1ccc(O)cc1)NC(C)=O)[C@@H](C)O)C(C)C)C(=O)N[C@@H](CO)C(=O)N[C@@H](CC(=O)O)C(=O)N[C@@H](CC(C)C)C(=O)O` [2-{2-[2-(2-{2-[2-(2-{2-[2-Acetylamino-3-(4-hydroxy-phenyl)-propionylamino]-propionylamino}-acetylamino)-3-hydroxy-butyrylamino]-3-methyl-butyrylamino}-3-methyl-pentanoylamino)-3-hydroxy-propionylamino]-3-carboxy-propionylamino}-4-methyl-pentanoicacid] displayed an IC50 of 395 µM.
Under “Ac-YAGTVINSL-OH [2-{2-[2-(2-{2-[2-(2-{2-[2-Acetylamino-3-(4-hydroxy-phenyl)-propionylamino]-propionylamino}-acetylamino)-3-hydroxy-butyrylamino]-3-methyl-butyrylamino}-3-methyl-pentanoylamino)-3-carbamoyl-propionylamino]-3-hydroxy-propionylamino}-4-methyl-pentanoic acid]” stands above 1000 µM; under `CC(=O)N[C@@H](Cc1ccc(O)cc1)C(=O)N[C@@H](C)C(=O)NCC(=O)N[C@H](C(=O)N[C@H](C(=O)N[C@@H](C(=O)N[C@@H](CC(N)=O)C(=O)N[C@@H](CC(=O)O)C(=O)N[C@@H](CC(C)C)C(=O)O)C(C)C)C(C)C)[C@@H](C)O` [2-{2-[2-(2-{2-[2-(2-{2-[2-Acetylamino-3-(4-hydroxy-phenyl)-propionylamino]-propionylamino}-acetylamino)-3-hydroxy-butyrylamino]-3-methyl-butyrylamino}-3-methyl-butyrylamino)-3-carbamoyl-propionylamino]-3-carboxy-propionylamino}-4-methyl-pentanoicacid], above 1000 µM.
